Test results: patent US5116949A, “Benzoyl urea compound-albumin complex” (Ishihara Sangyo Kaisha Ltd., priority 1988, dated 1992)
Converted amounts (≈) assume the structure as drawn.

Experiment: Solubility in distilled water for injection drug
Type: physicochemical
Details: Compound 3 alone, read-out: Solubility (as Compound 3)

O=C(NC(=O)c1ccccc1[N+](=O)[O-])Nc1ccc(Oc2ncc(Br)cn2)c(Cl)c1 [Compound 3]
solubility: 0.024 µg/mL (≈ 0.0487 µM)
